The text below walks through data of patent US7612238B2, “Amino-propanol derivatives” (Novartis AG, priority 2002, dated 2009).

Data set [1] deals with peripheral blood lymphocytes. The data set is described as follows: In vivo: blood lymphocyte depletion. The following applies: rats, p.o. How it is done:
B. In Vivo: Blood Lymphocyte Depletion
A compound of formula I or the vehicle is administered orally by gavage to rats. Tall blood for hematological monitoring is obtained on day −1 to give the baseline individual values, and at 2, 6, 24, 48 and 72 hours after application. In this assay, the compounds of formula I deplete peripheral blood lymphocytes when administered at a dose of 0.03 to 3 mg/kg.

Data set [2] deals with T1, human S1P receptors (S1P4) (Homo sapiens, UniProt O95977).
T1 construct: expressed in transfected cells
T1 sequence (O95977 1-384): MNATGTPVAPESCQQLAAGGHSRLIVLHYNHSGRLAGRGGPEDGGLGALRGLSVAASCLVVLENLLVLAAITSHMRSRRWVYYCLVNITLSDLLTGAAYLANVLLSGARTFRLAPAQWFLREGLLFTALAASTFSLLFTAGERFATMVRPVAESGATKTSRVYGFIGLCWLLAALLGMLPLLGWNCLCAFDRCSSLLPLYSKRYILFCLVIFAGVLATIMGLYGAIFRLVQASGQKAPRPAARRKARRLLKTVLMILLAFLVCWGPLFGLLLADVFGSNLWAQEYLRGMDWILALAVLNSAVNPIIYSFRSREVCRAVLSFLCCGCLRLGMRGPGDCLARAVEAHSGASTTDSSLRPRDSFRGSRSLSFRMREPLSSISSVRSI
The data set is described as follows: S1P receptor profiling, GTP[γ-35S] binding SPA, S1P4. Format: biochemical. The arrangement: key to S1P4 mode of action (Agon = agonist): Agon = agonist. The following applies: for EC50: GTP[γ-35S] binding, membranes of transfected CHO or RH7777 cells; for S1P4 mode of action (Agon = agonist): column beside S1P4 EC50. How it is done: (§1) The compounds of formula I have binding affinity to individual human S1P receptors as determined in following assays:
(§2) Sphingosine-1-Phosphate (S1P) Receptor Profiling
(§3) Agonist activities of compounds are tested on the human S1P receptors (S1P1), (S1P3), (S1P2), (S1P4) and (S1P5). […] The assay technology used is SPA (scintillation proximity based assay). Briefly, DMSO dissolved compounds are serially diluted and added to SPA-bead (Amersham-Pharmacia) immobilised S1P receptor expressing membrane protein (10-20 μg/well) in the presence of 50 mM Hepes, 100 mM NaCl, 10 mM MgCl2, 10 μM GDP, 0.1% fat free BSA and 0.2 nM GTP [γ-^35S] (1200 Ci/mmol). After incubation in 96 well microtiterplates at RT for 120 min, unbound GTP [γ-^35S] is separated by a centrifugation step. Luminescence of SPA beads triggered by membrane bound GTP [γ-^35S] is quantified with a TOPcount plate reader (Packard). EC50s are calculated using standard curve fitting software.

Data set [3] addresses T2, human S1P receptors (S1P1) (Homo sapiens, UniProt P21453).
T2 construct: expressed in transfected cells
The data set is described as follows: S1P receptor profiling, GTP[γ-35S] binding SPA, S1P1. Set-up: key to S1P1 mode of action (Agon = agonist): Agon = agonist. Format: biochemical. The following applies: for EC50: GTP[γ-35S] binding, membranes of transfected CHO or RH7777 cells. How it is done:
as §1, §2, §3
Background: Binding of GTPγS marks nucleotide exchange on a G protein.

Data set [4] has as its target T3, human S1P receptors (S1P3) (Homo sapiens, UniProt Q99500).
T3 construct: expressed in transfected cells
Briefly: S1P receptor profiling, GTP[γ-35S] binding SPA, S1P3. The class given is biochemical. Set-up: key to S1P3 mode of action (Agon = agonist): Agon = agonist. The following applies: for EC50: GTP[γ-35S] binding, membranes of transfected CHO or RH7777 cells. How it is done: as §1, §2, §3

The target in data set [5] is T4, human S1P receptors (S1P5) (Homo sapiens, UniProt Q9H228).
T4 construct: expressed in transfected cells
Briefly: S1P receptor profiling, GTP[γ-35S] binding SPA, S1P5. Set-up: key to S1P5 mode of action (Agon = agonist): Agon = agonist. To be noted: for EC50: GTP[γ-35S] binding, membranes of transfected CHO or RH7777 cells; for S1P5 mode of action (Agon = agonist): column beside S1P5 EC50. The class given is biochemical. How it is done: as §1, §2, §3

Data set [6] has as its target T5, human S1P receptors (S1P2) (Homo sapiens, UniProt O95136).
T5 construct: expressed in transfected cells
The data set is described as follows: S1P receptor profiling, GTP[γ-35S] binding SPA, S1P2. The class given is biochemical. To be noted: membranes of transfected CHO or RH7777 cells. How it is done: as §1, §2, §3

Counter-ions that a name gives are not always drawn.

T3 sequence (Q99500 whole entry): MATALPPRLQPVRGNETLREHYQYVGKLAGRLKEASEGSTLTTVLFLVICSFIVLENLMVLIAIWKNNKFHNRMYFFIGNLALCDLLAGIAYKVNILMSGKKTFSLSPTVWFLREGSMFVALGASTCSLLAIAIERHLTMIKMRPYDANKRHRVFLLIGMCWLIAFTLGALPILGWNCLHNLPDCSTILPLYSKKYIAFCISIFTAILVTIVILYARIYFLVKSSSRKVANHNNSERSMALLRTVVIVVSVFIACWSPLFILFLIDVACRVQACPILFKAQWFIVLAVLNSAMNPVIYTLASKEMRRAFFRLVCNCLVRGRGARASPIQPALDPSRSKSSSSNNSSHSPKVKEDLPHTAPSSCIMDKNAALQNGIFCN
T2 sequence (P21453 whole entry): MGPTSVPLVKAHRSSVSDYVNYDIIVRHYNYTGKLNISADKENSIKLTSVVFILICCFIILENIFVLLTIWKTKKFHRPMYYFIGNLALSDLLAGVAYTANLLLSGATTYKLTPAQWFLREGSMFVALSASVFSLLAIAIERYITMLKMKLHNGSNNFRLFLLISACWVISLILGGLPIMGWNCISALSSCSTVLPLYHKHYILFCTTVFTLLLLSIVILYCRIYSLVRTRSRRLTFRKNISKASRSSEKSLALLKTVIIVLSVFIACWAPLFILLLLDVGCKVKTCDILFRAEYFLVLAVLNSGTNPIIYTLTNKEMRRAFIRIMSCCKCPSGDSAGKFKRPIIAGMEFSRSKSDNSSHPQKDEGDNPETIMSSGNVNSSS
T5 sequence (O95136 whole entry): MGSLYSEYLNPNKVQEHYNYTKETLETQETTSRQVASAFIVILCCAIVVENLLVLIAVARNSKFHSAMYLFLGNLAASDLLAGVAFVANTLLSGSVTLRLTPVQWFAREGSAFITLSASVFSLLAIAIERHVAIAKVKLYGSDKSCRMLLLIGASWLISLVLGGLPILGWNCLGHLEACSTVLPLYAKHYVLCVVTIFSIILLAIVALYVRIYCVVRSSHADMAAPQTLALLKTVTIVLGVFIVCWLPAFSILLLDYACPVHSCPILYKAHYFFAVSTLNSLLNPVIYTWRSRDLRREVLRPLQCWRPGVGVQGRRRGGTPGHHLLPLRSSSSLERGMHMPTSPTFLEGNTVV
T4 sequence (Q9H228 whole entry): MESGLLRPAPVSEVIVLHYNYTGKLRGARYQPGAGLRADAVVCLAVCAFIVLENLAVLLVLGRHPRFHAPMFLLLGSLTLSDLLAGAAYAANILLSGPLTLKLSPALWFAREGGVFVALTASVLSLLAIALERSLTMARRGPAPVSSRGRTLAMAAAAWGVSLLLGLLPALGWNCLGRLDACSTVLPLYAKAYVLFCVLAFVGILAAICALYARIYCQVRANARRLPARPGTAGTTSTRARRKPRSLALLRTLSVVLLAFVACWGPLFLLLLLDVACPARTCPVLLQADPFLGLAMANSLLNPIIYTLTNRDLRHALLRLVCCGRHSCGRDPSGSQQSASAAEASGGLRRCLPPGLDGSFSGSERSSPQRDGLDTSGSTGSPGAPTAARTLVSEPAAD

Usually melting point stands for the temperature of the solid-liquid transition. The compound `C[C@](N)(CO)CCc1ccc(OCCCC(F)(F)C(F)(F)F)cc1` (as salt: hydrochloride) [Example 1, (R)-2-Amino-2-methyl-4-[4-(4,4,5,5,5-pentafluoro-pentyloxy)-phenyl]-butan-1-ol Hydrochloride] displayed a melting point of 186 to 189 °C.
The compound `C[C@](N)(CO)CCc1ccc(OCCCCCF)cc1` (as salt: hydrochloride) [Example 2, (R)-2-Amino-2-methyl-4-[4-(5-fluoro-pentyloxy)-phenyl]-butan-1-ol Hydrochloride] displayed a melting point of 143 to 146 °C.
For the compound `C[C@](N)(CO)CCc1ccc(OCCCC(F)(F)C(F)(F)F)cc1` [Example 1, (R)-2-Amino-2-methyl-4-[4-(4,4,5,5,5-pentafluoro-pentyloxy)-phenyl]-butan-1-ol Hydrochloride], the “dose giving depletion of peripheral blood lymphocytes by more than 50%” value was 0.2 mg/kg in data set [1] (after 6 h) and 0.1 mg/kg in data set [1] (after 24 h).
A word on the EC50: it is the concentration that produces a half-maximal response. `C[C@@](N)(CCc1ccc(OCCCC(F)(F)C(F)(F)F)cc1)COP(=O)(O)O` [Example 34, Mono-(R)-2-Amino-2-methyl-4-[4-(4,4,5,5,5-pentafluoro-pentyloxy)-phenyl]-but-2-yl phosphate] gave a melting point of 229 to 231 °C. Moreover, in data set [2], the EC50 amounted to 15.3 nM and the “S1P4 mode of action (Agon = agonist)” value is reported as “Agon”. Also, in data set [3], the “S1P1 mode of action (Agon = agonist)” value was “Agon” and the midpoint of the response, the EC50, lay at 16.1 nM. In data set [4], this compound had an EC50 above 10000 nM. In data set [5], the midpoint of the response, the EC50, lay at 0.9 nM and the “S1P5 mode of action (Agon = agonist)” value is recorded as “Agon”. In addition, the EC50 in data set [6] was above 10000 nM.
The compound `C[C@@](N)(CCc1ccc(OCCCCCF)cc1)COP(=O)(O)O` [Example 35, Mono-(R)-2-Amino-2-methyl-4-[4-(5-fluoro-pentyloxy)-phenyl]-but-2-yl phosphate] displayed a melting point of 237 to 241 °C.
In the case of `CC(N)(CCc1ccc(OCCc2ccc3ccccc3c2)cc1)COP(=O)(O)O` (stereo not drawn) [Example 42], the EC50 in data set [2] was 1.8 nM; in data set [3] it was 4.1 nM; in data set [4], above 10000 nM; in data set [5], 21.7 nM; in data set [6] it was above 10000 nM. Also, the “S1P4 mode of action (Agon = agonist)” value in data set [2] was “Agon”. Further, the “S1P1 mode of action (Agon = agonist)” value in data set [3] is “Agon”. Besides, the “S1P5 mode of action (Agon = agonist)” value in data set [5] is “Agon”.
With `C[C@@](N)(CCc1ccc(C(=O)CCc2ccc(-c3ccccc3)cc2)cc1)COP(=O)(O)O` [Example 50], the EC50 in data set [2] was above 10000 nM; in data set [3], 0.3 nM; in data set [4] it was 196 nM; in data set [5] it was 1.5 nM; in data set [6] it was above 10000 nM. In data set [3], the “S1P1 mode of action (Agon = agonist)” value is given as “Agon”. The “S1P3 mode of action (Agon = agonist)” value in data set [4] (column beside S1P3 EC50) is listed as “Agon”. Moreover, in data set [5], the “S1P5 mode of action (Agon = agonist)” value is recorded as “Agon”.
For `COc1ccc(CCOc2ccc(CCC(N)(CO)COP(=O)(O)O)cc2)cc1F` (stereo not drawn) [Example 94], the “S1P1 mode of action (Agon = agonist)” value in data set [3] was “Agon”. In addition, the EC50 in data set [3] is 12.2 nM; in data set [4], above 10000 nM; in data set [5], 4.9 nM; in data set [6] it was above 10000 nM. The “S1P5 mode of action (Agon = agonist)” value in data set [5] is given as “Agon”.
